In brackets after ≈: the same amount, converted by molar mass.
Legend:
Type in all cases: functional
[1] = test system: Sporothrix schenckii; assay: Antifungal activity against Sporothrix schenckii P20825 isolate from cutaneous-lymphatic sporotrichosis patient after 72 hrs by ATB Fungus 2 method
[2] = test system: Sporothrix schenckii; assay: Antifungal activity against Sporothrix schenckii P30019 isolate from cutaneous-lymphatic sporotrichosis patient after 72 hrs by Sensititre YeastOne method
[3] = test system: Sporothrix schenckii; assay: Antifungal activity against Sporothrix schenckii P14954 isolate from cutaneous-lymphatic sporotrichosis patient after 72 hrs by Sensititre YeastOne method
[4] = test system: Sporothrix schenckii; assay: Antifungal activity against Sporothrix schenckii P14954 isolate from cutaneous-lymphatic sporotrichosis patient after 72 hrs by ATB Fungus 2 method
[5] = test system: Sporothrix schenckii; assay: Antifungal activity against Sporothrix schenckii MRSS4 isolate from cutaneous-lymphatic sporotrichosis patient after 72 hrs by ATB Fungus 2 method
[6] = test system: Sporothrix schenckii; assay: Antifungal activity against Sporothrix schenckii P24223 isolate from cutaneous-lymphatic sporotrichosis patient after 72 hrs by modified NCCLS M38-A method
[7] = test system: Sporothrix schenckii; assay: Antifungal activity against Sporothrix schenckii P24223 isolate from cutaneous-lymphatic sporotrichosis patient after 72 hrs by Sensititre YeastOne method
[8] = test system: Sporothrix schenckii; assay: Antifungal activity against Sporothrix schenckii P24223 isolate from cutaneous-lymphatic sporotrichosis patient after 72 hrs by ATB Fungus 2 method
[9] = test system: Sporothrix schenckii; assay: Antifungal activity against Sporothrix schenckii PSCC1 isolate from cutaneous-lymphatic sporotrichosis patient after 72 hrs by Sensititre YeastOne method
[10] = test system: Sporothrix schenckii; assay: Antifungal activity against Sporothrix schenckii P24255 isolate from cutaneous-lymphatic sporotrichosis patient after 72 hrs by Sensititre YeastOne method
[11] = test system: Sporothrix schenckii; assay: Antifungal activity against Sporothrix schenckii P1621 isolate from cutaneous-lymphatic sporotrichosis patient after 72 hrs by modified NCCLS M38-A method
[12] = test system: Sporothrix schenckii; assay: Antifungal activity against Sporothrix schenckii SSA29 isolate from cutaneous-lymphatic sporotrichosis patient after 72 hrs by modified NCCLS M38-A method
[13] = test system: Sporothrix schenckii; assay: Antifungal activity against Sporothrix schenckii P26187 isolate from cutaneous-lymphatic sporotrichosis patient after 72 hrs by Sensititre YeastOne method
[14] = test system: Sporothrix schenckii; assay: Antifungal activity against Sporothrix schenckii PGAC0016 isolate from cutaneous-lymphatic sporotrichosis patient after 72 hrs by modified NCCLS M38-A method
[15] = test system: Sporothrix schenckii; assay: Antifungal activity against Sporothrix schenckii P14036 isolate from cutaneous-lymphatic sporotrichosis patient after 72 hrs by Sensititre YeastOne method
[16] = test system: Sporothrix schenckii; assay: Antifungal activity against Sporothrix schenckii P14036 isolate from cutaneous-lymphatic sporotrichosis patient after 72 hrs by ATB Fungus 2 method
[17] = test system: Candida parapsilosis; assay: Antifungal activity against Candida parapsilosis ATCC 22019 […] after 72 hrs by ATB Fungus 2 method; conditions: Lodderomyces parapsilosis, ATCC 22019, 72 h
[18] = test system: Aspergillus flavus; assay: Antifungal activity against Aspergillus flavus ATCC 204304 […] after 72 hrs by modified NCCLS M38-A method; conditions: ATCC 204304, 72 h
[19] = test system: Aspergillus flavus; assay: Antifungal activity against Aspergillus flavus ATCC 204304 […] after 72 hrs by Sensititre YeastOne method; conditions: ATCC 204304, 72 h
[20] = test system: Aspergillus flavus; assay: Antifungal activity against Aspergillus flavus ATCC 204304 […] after 72 hrs by ATB Fungus 2 method; conditions: ATCC 204304, 72 h
[21] = test system: Sporothrix schenckii; assay: Antifungal activity against Sporothrix schenckii isolate from cutaneous-lymphatic sporotrichosis patient after 72 hrs by modified NCCLS M38-A method
[22] = test system: Sporothrix schenckii; assay: Antifungal activity against Sporothrix schenckii isolate from cutaneous-lymphatic sporotrichosis patient after 72 hrs by Sensititre YeastOne method
[23] = test system: Pichia kudriavzevii; assay: Antifungal activity against Candida krusei ATCC 6258 […] after 72 hrs by modified NCCLS M38-A method; conditions: ATCC 6258, 72 h
[24] = test system: Candida parapsilosis; assay: Antifungal activity against Candida parapsilosis ATCC 22019 […] after 72 hrs by Sensititre YeastOne method; conditions: Lodderomyces parapsilosis, ATCC 22019, 72 h

Row | SMILES | MIC [1] [µg/mL] | MIC [2] [µg/mL] | MIC [3] [µg/mL] | MIC [4] [µg/mL] | MIC [5] [µg/mL] | MIC [6] [µg/mL] | MIC [7] [µg/mL] | MIC [8] [µg/mL] | MIC [9] [µg/mL] | MIC [10] [µg/mL] | MIC [11] [µg/mL] | MIC [12] [µg/mL] | MIC [13] [µg/mL] | MIC [14] [µg/mL] | MIC [15] [µg/mL] | MIC [16] [µg/mL] | MIC [17] [µg/mL] | MIC50 [21] [µg/mL] | MIC90 [21] [µg/mL] | MIC50 [22] [µg/mL] | also measured
1 | C[C@@H]1[C@H](O)[C@@H](C)/C=C/C=C/C=C/C=C/C=C/C=C/C=C/[C@H](O[C@@H]2O[C@H](C)[C@@H](O)[C@H](N)[C@@H]2O)C[C@@H]2O[C@](O)(C[C@@H](O)C[C@@H](O)[C@H](O)CC[C@@H](O)C[C@@H](O)CC(=O)O[C@H]1C)C[C@H](O)[C@H]2C(=O)O [AMPHOTERICIN B] | 1 (≈ 1.08 µM) | 1 (≈ 1.08 µM) | 1 (≈ 1.08 µM) | ≤ 0.5 | 4 (≈ 4.33 µM) | 0.5 (≈ 0.541 µM) | 0.5 (≈ 0.541 µM) | ≤ 0.5 | 0.25 (≈ 0.271 µM) | 0.5 (≈ 0.541 µM) | 0.125 (≈ 0.135 µM) | > 16 | 0.5 (≈ 0.541 µM) | 0.25 (≈ 0.271 µM) | 0.5 (≈ 0.541 µM) | 1 (≈ 1.08 µM) | ≤ 0.5 | 1 (≈ 1.08 µM) | > 116 | 0.5 (≈ 0.541 µM) | MIC [18]: 4 µg/mL (≈ 4.33 µM); MIC [19]: 0.5 µg/mL (≈ 0.541 µM); MIC [20]: > 16 µg/mL; MIC90 [22]: 1 µg/mL (≈ 1.08 µM)
2 | OC(Cn1cncn1)(Cn1cncn1)c1ccc(F)cc1F [FLUCONAZOLE] | > 128 | > 128 | > 256 | > 128 | > 128 | > 64 | > 256 | > 128 | > 256 | > 256 | > 64 | > 64 | 128 (≈ 418 µM) | > 64 | > 256 | > 128 | 4 (≈ 13.1 µM) | > 64 | > 64 | > 256 | MIC [23]: 128 µg/mL (≈ 418 µM); MIC90 [22]: > 256 µg/mL
3 | CCC(C)n1ncn(-c2ccc(N3CCN(c4ccc(OCC5COC(Cn6cncn6)(c6ccc(Cl)cc6Cl)O5)cc4)CC3)cc2)c1=O (configuration not stated) [ITRACONAZOLE] | 1 (≈ 1.42 µM) | 0.25 (≈ 0.354 µM) | 0.25 (≈ 0.354 µM) | 4 (≈ 5.67 µM) | 2 (≈ 2.83 µM) | 8 (≈ 11.3 µM) | 0.5 (≈ 0.709 µM) | 2 (≈ 2.83 µM) | 0.25 (≈ 0.354 µM) | 0.25 (≈ 0.354 µM) | 1 (≈ 1.42 µM) | 0.5 (≈ 0.709 µM) | 0.13 (≈ 0.184 µM) | 0.5 (≈ 0.709 µM) | 0.25 (≈ 0.354 µM) | 1 (≈ 1.42 µM) | ≤ 0.125 | 0.5 (≈ 0.709 µM) | 0.5 (≈ 0.709 µM) | 0.25 (≈ 0.354 µM) | MIC [23]: 1 µg/mL (≈ 1.42 µM); MIC [24]: 0.25 µg/mL (≈ 0.354 µM); MIC [18]: 0.5 µg/mL (≈ 0.709 µM); MIC [19]: 0.25 µg/mL (≈ 0.354 µM); MIC [20]: 0.25 µg/mL (≈ 0.354 µM); MIC90 [22]: 0.25 µg/mL (≈ 0.354 µM)

Source: ChEMBL document CHEMBL1150788, “In vitro susceptibility of Sporothrix schenckii to six antifungal agents determined using three different methods” (2007)
